Test results as given in ChEMBL document CHEMBL3826966, “A chromatography-free isolation of rohitukine from leaves of Dysoxylum binectariferum: Evaluation for in vitro cytotoxicity, Cdk inhibition and physicochemical properties” (Bioorg Med Chem Lett, 2016).

How the values were obtained:
[1] = target: Serine/threonine-protein kinase MARK1 (Homo sapiens) (UniProt Q9P0L2); assay: Inhibition of human MARK1 (2 to 795 residues) assessed as remaining enzyme activity at 50 uM after 30 mins by 33P-ATP filter-binding assay
[2] = target: RAC-beta serine/threonine-protein kinase (Homo sapiens) (UniProt P31751); assay: Inhibition of human PKBbeta assessed as remaining enzyme activity at 50 uM after 30 mins by 33P-ATP filter-binding assay
Sequence of RAC-beta serine/threonine-protein kinase (Homo sapiens) (P31751 whole entry, the tested form may be a part): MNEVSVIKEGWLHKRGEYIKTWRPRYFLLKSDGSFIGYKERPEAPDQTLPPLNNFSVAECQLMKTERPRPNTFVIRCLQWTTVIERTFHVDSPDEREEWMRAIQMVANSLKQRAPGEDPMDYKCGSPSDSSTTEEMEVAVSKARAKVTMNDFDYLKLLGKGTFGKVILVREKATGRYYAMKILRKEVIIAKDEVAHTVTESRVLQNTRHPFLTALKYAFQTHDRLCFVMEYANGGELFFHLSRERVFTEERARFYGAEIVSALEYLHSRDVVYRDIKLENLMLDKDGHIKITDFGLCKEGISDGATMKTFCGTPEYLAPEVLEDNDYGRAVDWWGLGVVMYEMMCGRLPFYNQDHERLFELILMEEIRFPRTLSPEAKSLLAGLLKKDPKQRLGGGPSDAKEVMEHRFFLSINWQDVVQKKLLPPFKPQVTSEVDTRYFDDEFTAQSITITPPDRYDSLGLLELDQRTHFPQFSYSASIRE

[3] = target: Mitogen-activated protein kinase 15 (Homo sapiens) (UniProt Q8TD08); assay: Inhibition of human ERK8 (2 to 544 residues) assessed as remaining enzyme activity at 50 uM after 30 mins by 33P-ATP filter-binding assay
[4] = target: Homeodomain-interacting protein kinase 3 (Homo sapiens) (UniProt Q9H422); assay: Inhibition of human HIPK3 (161 to 562 residues) assessed as remaining enzyme activity at 50 uM after 30 mins by 33P-ATP filter-binding assay
Sequence of Homeodomain-interacting protein kinase 3 (Homo sapiens) (Q9H422 whole entry, looked up, the tested form may be a part): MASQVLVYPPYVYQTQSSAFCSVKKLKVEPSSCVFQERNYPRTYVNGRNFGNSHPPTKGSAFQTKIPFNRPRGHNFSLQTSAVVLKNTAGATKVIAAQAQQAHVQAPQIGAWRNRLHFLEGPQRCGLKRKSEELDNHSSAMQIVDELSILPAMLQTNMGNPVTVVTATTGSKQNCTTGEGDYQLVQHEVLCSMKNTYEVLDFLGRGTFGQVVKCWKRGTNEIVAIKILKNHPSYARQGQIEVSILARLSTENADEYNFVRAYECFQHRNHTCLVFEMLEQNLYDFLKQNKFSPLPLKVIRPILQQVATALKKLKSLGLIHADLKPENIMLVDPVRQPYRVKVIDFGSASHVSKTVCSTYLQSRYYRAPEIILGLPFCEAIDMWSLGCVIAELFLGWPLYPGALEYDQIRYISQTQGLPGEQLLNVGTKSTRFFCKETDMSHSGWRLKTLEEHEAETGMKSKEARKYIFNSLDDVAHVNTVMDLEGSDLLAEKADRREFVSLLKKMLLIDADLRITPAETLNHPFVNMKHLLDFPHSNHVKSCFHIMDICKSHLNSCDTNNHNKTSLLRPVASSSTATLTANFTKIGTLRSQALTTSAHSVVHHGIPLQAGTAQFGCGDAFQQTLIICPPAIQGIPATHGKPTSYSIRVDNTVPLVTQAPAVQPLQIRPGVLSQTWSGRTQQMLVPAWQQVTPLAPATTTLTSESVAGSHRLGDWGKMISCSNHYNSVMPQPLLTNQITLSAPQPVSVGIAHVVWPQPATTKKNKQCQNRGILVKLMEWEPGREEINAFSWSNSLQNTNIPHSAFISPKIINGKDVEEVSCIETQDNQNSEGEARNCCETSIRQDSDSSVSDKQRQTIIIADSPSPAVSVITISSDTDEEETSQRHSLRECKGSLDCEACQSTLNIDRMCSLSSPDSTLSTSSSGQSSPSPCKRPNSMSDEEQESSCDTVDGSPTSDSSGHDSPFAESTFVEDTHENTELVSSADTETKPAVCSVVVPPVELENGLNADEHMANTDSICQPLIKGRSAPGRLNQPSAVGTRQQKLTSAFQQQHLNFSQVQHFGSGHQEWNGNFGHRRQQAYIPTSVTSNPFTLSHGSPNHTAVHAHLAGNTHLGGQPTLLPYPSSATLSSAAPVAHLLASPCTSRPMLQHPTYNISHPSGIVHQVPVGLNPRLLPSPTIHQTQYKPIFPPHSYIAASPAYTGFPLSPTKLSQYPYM

[5] = Cytotoxicity against human MOLT4 cells assessed as cell growth inhibition after 48 hrs by MTT assay; format: functional; settings: MOLT-4, 48 h
[6] = target: Serine/threonine-protein kinase SIK2 (Homo sapiens) (UniProt Q9H0K1); assay: Inhibition of human SIK2 (2 to 962 residues) assessed as remaining enzyme activity at 50 uM after 30 mins by 33P-ATP filter-binding assay
[7] = target: Phosphorylase kinase (Homo sapiens) (UniProt P15735+P46020+P46019+Q93100+Q16816); assay: Inhibition of human PHK assessed as remaining enzyme activity at 50 uM after 30 mins by 33P-ATP filter-binding assay; format: protein-complex assay
[8] = Cell cycle arrest in human HL60 cells assessed as accumulation at G2 phase at 1 uM (reference value: 5 %); format: functional, cell-based; settings: HL-60
[9] = target: Serine/threonine-protein kinase N2 (Homo sapiens) (UniProt Q16513); assay: Inhibition of human PRK2 (501 to 984 residues) assessed as remaining enzyme activity at 50 uM after 30 mins by 33P-ATP filter-binding assay
Sequence of Serine/threonine-protein kinase N2 (Homo sapiens) (Q16513 whole entry, looked up, the tested form may be a part, canonical isoform): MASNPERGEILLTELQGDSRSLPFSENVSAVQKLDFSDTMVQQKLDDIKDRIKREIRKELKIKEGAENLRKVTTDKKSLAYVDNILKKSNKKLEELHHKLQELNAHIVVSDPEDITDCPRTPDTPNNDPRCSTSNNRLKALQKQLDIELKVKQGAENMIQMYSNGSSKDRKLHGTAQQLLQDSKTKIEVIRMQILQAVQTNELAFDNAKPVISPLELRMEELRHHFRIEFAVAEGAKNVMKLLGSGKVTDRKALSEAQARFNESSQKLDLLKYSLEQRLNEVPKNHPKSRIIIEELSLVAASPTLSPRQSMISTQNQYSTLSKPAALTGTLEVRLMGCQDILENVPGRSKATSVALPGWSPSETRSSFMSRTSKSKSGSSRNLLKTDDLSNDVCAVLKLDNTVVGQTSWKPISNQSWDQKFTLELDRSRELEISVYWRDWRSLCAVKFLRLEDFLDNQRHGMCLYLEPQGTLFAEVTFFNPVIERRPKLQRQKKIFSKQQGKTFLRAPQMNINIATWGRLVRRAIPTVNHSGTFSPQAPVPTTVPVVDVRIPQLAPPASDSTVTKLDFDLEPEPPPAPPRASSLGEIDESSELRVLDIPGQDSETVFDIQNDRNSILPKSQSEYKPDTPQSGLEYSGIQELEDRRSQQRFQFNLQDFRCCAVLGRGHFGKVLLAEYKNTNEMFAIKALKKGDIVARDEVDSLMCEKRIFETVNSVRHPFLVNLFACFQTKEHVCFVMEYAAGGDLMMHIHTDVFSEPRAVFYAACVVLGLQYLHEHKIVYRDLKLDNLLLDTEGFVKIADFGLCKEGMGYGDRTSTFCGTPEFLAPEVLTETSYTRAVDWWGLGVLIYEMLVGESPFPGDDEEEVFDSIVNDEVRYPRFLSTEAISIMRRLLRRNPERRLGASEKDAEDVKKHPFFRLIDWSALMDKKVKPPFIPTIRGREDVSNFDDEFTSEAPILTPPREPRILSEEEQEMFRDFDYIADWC

[10] = target: Casein kinase I isoform delta (Homo sapiens) (UniProt P48730); assay: Inhibition of human CK1delta (1 to 415 residues) assessed as remaining enzyme activity at 50 uM after 30 mins by 33P-ATP filter-binding assay
[11] = Cytotoxicity against human BxPC3 cells assessed as cell growth inhibition after 48 hrs by MTT assay; format: functional; settings: BXPC-3, 48 h
CDK2/Cyclin A2 = CDK2/Cyclin A2 (Homo sapiens, UniProt P24941); assay: Inhibition of human Cdk2/cyclin A using histone H1 substrate after 30 mins by 33P-ATP filter-binding assay; format: protein-complex assay
[12] = target: Ribosomal protein S6 kinase alpha-1 (Homo sapiens) (UniProt Q15418); assay: Inhibition of human RSK1 (1 to 735 residues) assessed as remaining enzyme activity at 50 uM after 30 mins by 33P-ATP filter-binding assay
[13] = target: Dual specificity protein kinase CLK2 (Homo sapiens) (UniProt P49760); assay: Inhibition of human CLK2 (138 to 499 residues) assessed as remaining enzyme activity at 50 uM after 30 mins by 33P-ATP filter-binding assay
[14] = target: Tyrosine-protein kinase JAK2 (Homo sapiens) (UniProt O60674); assay: Inhibition of human JAK2 assessed as remaining enzyme activity at 50 uM after 30 mins by 33P-ATP filter-binding assay
[15] = target: Ephrin type-B receptor 4 (Homo sapiens) (UniProt P54760); assay: Inhibition of human EPHB4 (561 to 997 residues) assessed as remaining enzyme activity at 50 uM after 30 mins by 33P-ATP filter-binding assay
Sequence of Ephrin type-B receptor 4 (Homo sapiens) (P54760 whole entry, the tested form may be a part): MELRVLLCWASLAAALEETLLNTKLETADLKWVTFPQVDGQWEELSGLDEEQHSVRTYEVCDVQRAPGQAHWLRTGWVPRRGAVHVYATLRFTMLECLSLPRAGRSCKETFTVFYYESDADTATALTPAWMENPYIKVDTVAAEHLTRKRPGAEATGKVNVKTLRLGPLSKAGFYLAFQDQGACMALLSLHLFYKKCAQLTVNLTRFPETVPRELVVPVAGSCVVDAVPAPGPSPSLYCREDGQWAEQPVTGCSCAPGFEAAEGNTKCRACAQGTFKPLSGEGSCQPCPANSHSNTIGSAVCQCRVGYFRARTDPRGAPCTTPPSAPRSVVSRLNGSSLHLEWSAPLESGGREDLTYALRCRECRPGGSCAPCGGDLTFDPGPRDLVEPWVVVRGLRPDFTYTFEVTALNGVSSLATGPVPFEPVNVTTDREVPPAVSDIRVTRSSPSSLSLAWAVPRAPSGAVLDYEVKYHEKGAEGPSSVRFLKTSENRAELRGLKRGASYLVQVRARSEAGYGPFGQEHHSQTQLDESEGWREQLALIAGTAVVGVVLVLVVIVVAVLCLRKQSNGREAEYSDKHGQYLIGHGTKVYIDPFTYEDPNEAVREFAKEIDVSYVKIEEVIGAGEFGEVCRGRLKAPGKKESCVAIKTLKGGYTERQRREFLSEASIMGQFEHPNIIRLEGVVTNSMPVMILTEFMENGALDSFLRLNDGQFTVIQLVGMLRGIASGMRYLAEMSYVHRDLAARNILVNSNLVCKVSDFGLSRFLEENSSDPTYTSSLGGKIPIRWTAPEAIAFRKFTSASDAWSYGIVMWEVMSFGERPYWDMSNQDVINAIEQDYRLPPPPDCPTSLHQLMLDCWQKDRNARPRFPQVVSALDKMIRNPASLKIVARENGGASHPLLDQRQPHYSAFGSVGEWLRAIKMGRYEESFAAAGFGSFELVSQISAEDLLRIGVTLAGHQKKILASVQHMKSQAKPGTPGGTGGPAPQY

[16] = target: SRSF protein kinase 1 (Homo sapiens) (UniProt Q96SB4); assay: Inhibition of human SRPK1 (2 to 654 residues) assessed as remaining enzyme activity at 50 uM after 30 mins by 33P-ATP filter-binding assay
ASPC1 = assay: Cytotoxicity against human AsPC1 cells assessed as cell growth inhibition after 48 hrs by MTT assay; format: functional; settings: ASPC1, 48 h
[17] = target: Serine/threonine-protein kinase Chk1 (Homo sapiens) (UniProt O14757); assay: Inhibition of human CHK1 (1 to 476 residues) assessed as remaining enzyme activity at 50 uM after 30 mins by 33P-ATP filter-binding assay
Sequence of Serine/threonine-protein kinase Chk1 (Homo sapiens) (O14757 whole entry, the tested form may be a part): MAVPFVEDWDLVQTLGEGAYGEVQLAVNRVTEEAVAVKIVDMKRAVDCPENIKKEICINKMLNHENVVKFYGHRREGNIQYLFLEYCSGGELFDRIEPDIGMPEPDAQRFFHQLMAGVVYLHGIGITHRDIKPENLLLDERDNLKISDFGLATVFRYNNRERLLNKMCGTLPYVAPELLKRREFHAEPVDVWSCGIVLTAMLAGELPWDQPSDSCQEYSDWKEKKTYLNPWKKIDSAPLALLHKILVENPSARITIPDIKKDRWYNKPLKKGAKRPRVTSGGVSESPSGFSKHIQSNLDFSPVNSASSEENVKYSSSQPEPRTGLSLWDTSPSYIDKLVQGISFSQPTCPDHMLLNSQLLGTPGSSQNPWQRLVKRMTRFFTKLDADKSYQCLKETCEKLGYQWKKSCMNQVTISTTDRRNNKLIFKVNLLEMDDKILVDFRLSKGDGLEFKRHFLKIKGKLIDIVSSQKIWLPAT

[18] = target: Mitogen-activated protein kinase 3 (Homo sapiens) (UniProt P27361); assay: Inhibition of human ERK1 (1 to 379) assessed as remaining enzyme activity at 50 uM after 30 mins by 33P-ATP filter-binding assay
[19] = target: Serine/threonine-protein kinase MARK2 (Homo sapiens) (UniProt Q7KZI7); assay: Inhibition of human MARK2 (2 to 691 residues) assessed as remaining enzyme activity at 50 uM after 30 mins by 33P-ATP filter-binding assay
Sequence of Serine/threonine-protein kinase MARK2 (Homo sapiens) (Q7KZI7 whole entry, the tested form may be a part): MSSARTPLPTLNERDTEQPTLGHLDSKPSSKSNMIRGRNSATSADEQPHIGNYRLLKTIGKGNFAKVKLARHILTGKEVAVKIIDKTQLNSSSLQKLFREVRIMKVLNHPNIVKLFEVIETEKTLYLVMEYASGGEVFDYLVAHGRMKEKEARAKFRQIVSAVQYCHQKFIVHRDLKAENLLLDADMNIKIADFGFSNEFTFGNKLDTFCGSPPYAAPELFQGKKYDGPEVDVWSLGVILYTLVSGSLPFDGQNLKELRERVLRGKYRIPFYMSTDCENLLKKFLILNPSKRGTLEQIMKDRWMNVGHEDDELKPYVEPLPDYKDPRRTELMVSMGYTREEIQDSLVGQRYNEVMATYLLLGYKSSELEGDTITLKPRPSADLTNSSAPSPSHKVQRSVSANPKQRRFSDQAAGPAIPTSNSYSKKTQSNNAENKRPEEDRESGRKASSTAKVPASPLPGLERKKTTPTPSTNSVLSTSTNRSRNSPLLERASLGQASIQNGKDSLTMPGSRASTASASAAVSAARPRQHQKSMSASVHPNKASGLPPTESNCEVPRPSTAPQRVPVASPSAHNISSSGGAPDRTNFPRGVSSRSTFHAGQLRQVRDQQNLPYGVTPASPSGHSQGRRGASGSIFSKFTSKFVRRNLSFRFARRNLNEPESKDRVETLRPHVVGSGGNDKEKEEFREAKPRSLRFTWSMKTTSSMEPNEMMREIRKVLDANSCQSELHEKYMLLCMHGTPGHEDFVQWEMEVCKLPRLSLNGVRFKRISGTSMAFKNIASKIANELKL

[20] = Partition coefficient, logP of the compound in water/PBS buffer at 25 degC by OECD guidelines based method; format: physicochemical; settings: water/PBS buffer; read-out: logP
[21] = target: Mitogen-activated protein kinase 13 (Homo sapiens) (UniProt O15264); assay: Inhibition of human p38delta MAPK (1 to 365 residues) assessed as remaining enzyme activity at 50 uM after 30 mins by 33P-ATP filter-binding assay
[22] = Cytotoxicity against human THP1 cells assessed as cell growth inhibition after 48 hrs by MTT assay; format: functional; settings: THP-1, 48 h
HL-60 = assay: Induction of apoptosis in human HL60 cells assessed as apoptotic cells at 10 uM (reference value: 1 %); format: functional
[23] = target: Mitogen-activated protein kinase 9 (Homo sapiens) (UniProt P45984); assay: Inhibition of human JNK2 (1 to 424 residues) assessed as remaining enzyme activity at 50 uM after 30 mins by 33P-ATP filter-binding assay

Activity [1]: 67%
Activity [2]: 80%
Activity [4]: 100%
Activity [6]: 19%
Activity [7]: 23%
Activity [9]: 42%
Activity [10]: 78%
IC50 (CDK2/Cyclin A2): 7.3 µM
Activity [12]: 31%
Activity [13]: 45%
Activity [14]: 41%
Activity [15]: 84%
Activity [16]: 40%
Activity [17]: 52%
Activity [18]: 86%
Activity [19]: 69%
logP [20]: 0.73
Activity [21]: 16%
Activity [23]: 107%
SMILES: Cc1cc(=O)c2c(O)cc(O)c([C@H]3CCN(C)C[C@H]3O)c2o1 [ROHITUKINE]
Activity [3]: 19%
GI50 [5]: 12 µM
Activity [8]: 13%
GI50 [11]: 20 µM
GI50 (ASPC1): 21 µM
GI50 [22]: 28 µM
Activity (HL-60): 10%
